Data from patent publication US7109329B2, “Neurologically active compounds and compounds with multiple activities” (priority 1988, dated 2006).

How the values were obtained:
[1] = Treatment of spinal cord injured rats and cats with alpha-adrenoceptor agonists; type: in vivo
Procedure: The animals are treated with a guanidino compound, e.g., guanphylline or aminoguanphylline, twice daily (1 mg/kg). Approximately 10, 14 and 20 days after treatment with, e.g., guanphylline or aminoguanphylline is commenced, these animals can also be treated with a serotonergic (“5-HT”) receptor agonist; such as quipazine (1–2 mg/kg). Such serotonergic compounds can accelerate the recovery period, i.e., shorten the period after which time the animals become mobile. The animals should then continue to be treated systemically with the guanidino compound twice daily for six to eight weeks, or until functional recovery has been achieved.
Many rats and cats have been treated with several alpha-adrenoceptor agonists in order to ascertain which drug has the least side effects and reduces the time period for recovery.

[2] = Brain and core temperature of treated rats in a room at 4°–5°; type: in vivo, Sprague-Dawley rats; settings: 12 mg/kg IP
Procedure: All sixteen rats were placed in a temperature-controlled room maintained at 4°–5° d. immediately after injection.

[3] = Procedure: Room temperature was 21.5° C.
The core temperatures of the rats were allowed to fall to approximately 30° C., after about 15 minutes. At that time, the rats were placed in a temperature controlled room maintained at 42° C., together with 2 control rats treated only with the dextrose solution.
The core temperatures of the rats were allowed to fall to approximately 30° C. At that time, the rats were placed in a temperature controlled room maintained at 42° C., together with two control rats treated only with the dextrose solution.

[4] = Intravenous anesthesia of a 70 kg mammal; type: in vivo
Procedure: Thereafter, an intravenous injection containing 20 mg of aminophylline is administered over a period of five minutes. The large mammal is fully awakened within about 20 minutes, appearing alert and refreshed.
The period of time required to fully reverse the anesthesia can be increased or decreased by proportionally changing the amount of the antagonist. After metabolism of guanabenz, the mammal will spontaneously awaken, within about three to six hours after the I.V. drip is discontinued.

[5] = Spinal cord transection in rats: recovery of hind limb function and reflexes under treatment; type: in vivo, rat
Procedure: The spinal cord of a group of rats was completely transected. After surgery, the rats were treated with guanabenz.
The rats presented with a condition of bloody eyes and nose for a period of 2 to 5 days after the transection. During the first two-weeks, proper plantar placement, weight bearing on the hind limbs and/or coordinated walking was not present.
In a further group of six rats the spinal cord was transected in accordance with the above Comparative Examples. After surgery and cleaning and mechanical treatment of the wounds in the same fashion, an intraperitoneal injection of 7-(guanidino-acetyl-theophylline (“C”) was administered at a dose of 5.0 mg/kg 24 hours post surgery. Within a 7 to 9 day period, the rats engaged in walking movements of the hind limbs coordinated with those of the front limbs and the hind limbs, including proper plantar placement and full weight bearing on the hind limbs.
Within 36 hours after the spinal cord transection, i.e., only 12 hours after initial administration of Compound C, the initial bloody eyes and nose condition had abated. […] Further the animals were alert and continued to eat in substantially normal quantities.
Starting 24 hours post-transection, immediately after each intraperitoneal administration of Compound C, reflexes such as the tail-flick and cross-extension would return, within 12 minutes post injection. […] Within 8 to 11 days the response became sustained, and was accompanied by long-term therapeutic restoration of coordinated movements, plantar placements and weight-bearing by the hind limbs.

[6] = Core temperature of treated rats in a room at minus 30° C.; type: in vivo, rat; settings: four rats, 4 mg intraperitoneally, placed about 30 minutes after injection
Procedure: (room temperature). […] (plus or minus 0.5° C.). The core temperatures of the four treated rats, as well as that of two control rats who received only the dextrose solution, were continuously monitored.

[7] = Anesthesia in rats judged by reflexes and wakefulness
[8] = Formation of scar tissue at the trauma site; type: in vivo
Description: It is believed that these mixed agonists interfere with triple helix formation in the synthesis of collagen protein, thus preventing or reducing the formation of hard scar tissue at the trauma site.
The purpose of liquid nitrogen is to reduce the structural integrity of the collagen laden, glial scar tissue, by freezing and defrosting. Collagenase then initiates a debridgement of the scar without attacking the nervous and osseous tissue. If required, streptokinase, or alteplase, both plasminogen activators can also be used to bring about a complete debridgement. In addition to 3-amino-propionitrile (a latherogen), 5-fluorodeoxyuridine and dehydroproline can be used to arrest further glial and fibroblastic invasion of the scar region, respectively.

[9] = Electrical tail stimulation, vocalization threshold (anesthesia) in rats; type: in vivo, rat
Procedure: A fifth rat was treated with merely an equal amount of the dextrose solution without guanabenz acetate. The rats were subjected to an electrical tail stimulation, by electrodes attached to their tails, to determine the point of positive (threshold) vocalization.
The normal vocalization threshold, and the point at which the control rat vocalized was approximately 7 volts. […] To bring the rats out of anesthesia, the rats were then injected with 40 mgs. of aminophylline, also in 1 ml of a 5% aqueous dextrose solution. […] The normal threshold for vocalization was reestablished, as there was no vocalization at 6 volts following recovery from anesthesia.
The rats were maintained under anaesthesia for a period of 50 minutes before injection of the aminophylline.

[10] = Spinal cord trauma (500 g-cm weight drop at T4) in cats: urinary bladder function, micturition; type: in vivo, cat
Procedure: A cat was anesthetized using intravenous pentobarbital (30 mg/kg) after which its arterial blood pressure was continuously monitored for at least two hours. After recording stable arterial blood pressure, a dorsal laminectomy was performed in the thoracic region of the cat from T3 to T5; after restoration of blood pressure, the cat was traumatized by means of a twenty gram weight being dropped from a height of twenty-five centimeters (500 g-cm force) on the exposed dura of the spinal cord at the fourth thoracic segment.
Ten cats were spinally traumatized in accordance with the procedure set forth above in Comparative Example A. Five of these spinal cats were treated with Compound C commencing three hours after trauma and five of the cats were treated with guanabenz beginning at the same time.
Spinalized cats required eight weeks of treatment with guanabenz before regaining controlled micturition. Cats treated with Compound C, required only three to five weeks of treatment to achieve the same results.

[11] = 4 mg I.P., room temperature 21.5° C.
[12] = Sprague-Dawley rats, 4 mg, tolazoline 4 mg intravenously about twenty minutes before

Cn1c(=O)c2c(ncn2C(=O)CNC(=N)N)n(C)c1=O [7-(guanidinoacetyl)-theophylline]
efficacy in treated rats and cats [1]: found efficacious

N=C(N)N/N=C/c1c(Cl)cccc1Cl [guanabenz]
behavior after the experiment [2]: resume normal behavior
core temperature lower than the brain temperature by ([2]; ultimately): 10 °C
mean brain temperature after 45 minutes ([2]; 8 rats, original mean 37° C.): 27 °C
mean intraperitoneal temperature [3, 11]: 31.5 °C
temperatures of the liver and the kidneys [3, 11]: about 33.5 °C
core temperature (colonic measurement) after drop ([3]; eight rats each, 4 mg I.P. in 5% dextrose, room temperature 21.5° C., normal value 36.5° C.): 22.5 °C
core temperature after drop ([3]; four rats, 4 mg intraperitoneally, room temperature 21° C., before cold room): 21 °C
total amount in the initial single dose for anesthetic and hypothermic effect ([4]; 60 to 75 kg mammal, intravenous injection): ≤ 0.5 mg/kg
reaction to noxious stimulation and corneal reflex ([4]; 70 kg mammal, 6 mg intravenous): does not overtly react to the noxious stimulation of pin-pricks
time after injection until profound anesthesia ([4]; 70 kg mammal, 6 mg intravenous over three minutes): five
additional duration of profound anesthesia after the drip ([4]; 70 kg mammal, drip 0.1 mg/ml at 1 ml/min for 30 minutes from about 120 minutes after the initial injection): about two
time to spontaneous awakening after the I.V. drip is discontinued ([4]; large mammal, after metabolism of guanabenz): three to six
muscle mass of hind limbs ([5]; spinal transected rats under I.P. treatment): some, but not significant loss of muscle mass
duration of sedation following each administration ([5]; spinal transected rats, 0.65 mg/kg I.P. twice per day from 72 hours after the lesion): 2 to 4 h
time of treatment until proper plantar placement, weight bearing on the hind limbs and coordinated walking movements ([5]; spinal transected rats, 0.65 mg/kg I.P. twice per day, majority of the rats): third week
core temperature approximately 15 minutes after placement in the cold room [6]: ~16 °C
anesthetic state of the treated rats [7, 11]: anesthetized
I.P. amount sufficient to initially place the rats in an anesthetized condition ([7]; laboratory rats, I.P.): 12 mg per kilogram of body weight
effect on formation of the scar [8]: interfere with formation of the scar
duration of anesthesia without further administration [9, 12]: four
time until anesthetized [9, 12]: five
vocalization threshold on electrical tail stimulation (failed to vocalize) ([9]; rats 310–350 g, 4 mg intraperitoneally, beginning seven minutes after injection, normal threshold 7 volts): > 10 volts
vocalization threshold on electrical tail stimulation (no vocalization response) ([9]; rats, 4 mg intraperitoneally, thereafter (profoundly anesthetized)): > 40 Volts
urinary bladder function at urodynamic examination ([10]; spinal cats, 0.65 mg/kg bid from three hours after trauma, guanabenz four to five weeks after treatment began, Compound C after seven to twenty-one days): tight urinary sphincter and dyssinergia
treatment required before regaining controlled micturition ([10]; spinalized cats): eight
